This is an account of results in US20220056019A1, “FARNESOID X RECEPTOR AGONISTS AND USES THEREOF” (Metacrine, Inc., priority 2018, published 2022).

One may read the EC50 as the concentration that produces a half-maximal response. Read a low EC50 as greater potency.

This test has as its target T1, hFXR (Homo sapiens, UniProt Q96RI1).
T1 construct: expressed in transfected cells; host or cells: CV-1 cells
T1 sequence (Q96RI1 1-486): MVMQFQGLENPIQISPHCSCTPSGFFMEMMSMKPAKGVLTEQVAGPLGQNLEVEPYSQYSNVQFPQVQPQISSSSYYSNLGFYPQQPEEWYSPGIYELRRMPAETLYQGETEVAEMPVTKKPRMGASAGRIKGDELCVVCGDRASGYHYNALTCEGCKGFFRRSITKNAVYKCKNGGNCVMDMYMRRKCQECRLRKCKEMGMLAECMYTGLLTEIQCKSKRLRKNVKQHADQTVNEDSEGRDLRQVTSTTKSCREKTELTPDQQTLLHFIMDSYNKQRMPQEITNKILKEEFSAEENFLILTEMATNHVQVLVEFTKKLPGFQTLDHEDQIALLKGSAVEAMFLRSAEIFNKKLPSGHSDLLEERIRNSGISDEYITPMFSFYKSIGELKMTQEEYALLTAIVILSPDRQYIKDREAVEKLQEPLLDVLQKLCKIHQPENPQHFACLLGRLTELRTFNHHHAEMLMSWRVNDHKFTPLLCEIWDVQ
T1 sequence (P19793 1-462 partner): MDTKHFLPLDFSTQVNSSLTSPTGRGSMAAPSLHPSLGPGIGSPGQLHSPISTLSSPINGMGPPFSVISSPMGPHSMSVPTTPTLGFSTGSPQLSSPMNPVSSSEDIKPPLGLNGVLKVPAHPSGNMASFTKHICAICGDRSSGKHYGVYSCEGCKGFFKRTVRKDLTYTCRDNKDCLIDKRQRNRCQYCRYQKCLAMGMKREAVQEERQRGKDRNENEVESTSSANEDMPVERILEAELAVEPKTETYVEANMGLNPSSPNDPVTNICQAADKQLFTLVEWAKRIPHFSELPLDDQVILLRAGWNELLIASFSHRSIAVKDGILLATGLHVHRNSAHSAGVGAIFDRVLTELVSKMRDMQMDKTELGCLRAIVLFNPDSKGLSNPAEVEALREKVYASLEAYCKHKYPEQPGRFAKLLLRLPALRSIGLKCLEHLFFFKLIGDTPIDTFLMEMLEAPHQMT
Nature of the test: In Vitro FXR Assay (TK): TK-ECRE-luc reporter in transfected CV-1 cells. It is filed as cell-based. Conditions: 18 hrs incubation, luminescence. An outline of the steps: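 Luciferase read-out from lysed CV-1 cells carrying transfected hFXR, hRXR, TK-ECRE-luc and pCMX-YFP. Test compounds, DMSO serial dilutions, were incubated with the cells for 18 h before lysis. Cells grew in charcoal-stripped serum medium.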
For `COc1ccc(C23CCC(CN(c4cccc(-n5cnc(C6CC6)c5)c4)C(=O)[C@H]4CC[C@H](OC(=O)N5CC(O)C5)CC4)(CC2)CC3)cc1C` [Compound 4.58, 4-((3-(4-Cyclopropyl-1H-imidazol-1-yl)phenyl) ((4-(4-methoxy-3-methylphenyl)bicyclo [2.2.2]octan-1-yl)methyl)carbamoyl)cyclohexyl trans-3-hydroxyazetidine-1-carboxylate], the EC50 is at most 50 nM.

For `COc1ccc([C@H]2CC[C@H](CN(c3cc(-c4cnn(C(C)C)c4)ccn3)C(=O)[C@H]3CC[C@H](OC(=O)NCC(C)(F)F)CC3)CC2)cc1C` [Compound 2.31, trans-4-((4-(1-Isopropyl-1H-pyrazol-4-yl)pyridin-2-yl)(((trans)-4-(4-methoxy-3-methylphenyl)cyclohexyl)methyl)carbamoyl) cyclohexyl(2,2-difluoropropyl)carbamate], the EC50 is at most 50 nM.

For `COc1ccc(C23CCC(CN(c4cc(-c5cnn(C6(C)CCC6)c5)c(F)cn4)C(=O)[C@H]4CC[C@H](OC(=O)N5CC(O)C5)CC4)(CC2)CC3)cc1C` [Compound 25.18, 4-((5-Fluoro-4-(1-(1-methylcyclobutyl)-1H-pyrazol-4-yl)pyridin-2-yl)((4-(4-methoxy-3-methylphenyl)bicyclo[2.2.2]octan-1-yl)methyl)carbamoyl)cyclohexyl trans-3-hydroxyazetidine-1-carboxylate], the EC50 is at most 50 nM. Next, `COc1ccc([C@H]2CC[C@H](CN(c3cccc(-c4cnn(C(C)C)c4)c3)C(=O)[C@H]3CC[C@H](NC(=O)OC(C)C)CC3)CC2)cc1C` [Compound 6.02, Isopropyl (trans-4-((3-(1-isopropyl-1H-pyrazol-4-yl)phenyl)((trans-4-(4-methoxy-3-methylphenyl)cyclohexyl)meth-yl)carbamoyl)cyclohexyl)carbamate]: at most 50 nM; `COc1ccc([C@H]2CC[C@H](CN(c3cc(-c4cnn(C(C)C)c4)ccn3)C(=O)[C@H]3CC[C@H](OCCCO)CC3)CC2)cc1C` [Compound 16.01, trans-4-(3-Hydroxypropoxy)-N-(4-(1-isopropyl-1H-pyrazol-4-yl)pyridin-2-yl)-N-((trans-4-(4-methoxy-3-methylphenyl)cyclohexyl)methyl)cyclo-hexanecarboxamide]: at most 50 nM. `COc1ccc(C23CCC(CN(c4cc(-c5cnn(C(C)C)c5)c(F)cn4)C(=O)[C@H]4CC[C@H](OC(=O)N5CC(CO)C5)CC4)(CC2)CC3)cc1C` [Compound 25.06, 4-((5-Fluoro-4-(1-isopropyl-1H-pyrazol-4-yl)pyridin-2-yl)((4-(4-methoxy-3-methylphenyl)bicyclo[2.2.2]octan-1-yl)methyl)carbamoyl)cyclohexyl trans-3-(hydroxymethyl)azetidine-1-carboxylate]: the EC50 is at most 50 nM. In the case of `COCC(=O)N[C@H]1CC[C@H](C(=O)N(CC23CCC(c4ccc(OC)c(C)c4)(CC2)CC3)c2cc(-c3cnc(C(C)C)s3)ccn2)CC1` [Compound 9.05, (trans)-N-(4-(2-Isopropylthiazol-5-yl)pyridin-2-yl)-N-((4-(4-methoxy-3-methylphenyl)bicyclo[2.2.2]octan-1-yl)methyl)-4-(2-methoxyacetamido)cyclohexanecar-boxamide], the EC50 is at most 50 nM. Under `COc1ccc(C23CCC(CN(c4cc(-c5cnn(C(C)C)c5)ccn4)C(=O)[C@H]4CC[C@H](OC(=O)N5CC(OCCO)C5)CC4)(CC2)CC3)cc1C` [Compound 4.10, 4-((4-(1-Isopropyl-1H-pyrazol-4-yl)pyridin-2-yl)((4-(4-methoxy-3-methylphenyl)bicyclo [2.2.2]octan-1-yl)methyl)carbamoyl)cyclohexyl 3-(2-hydroxyethoxy) azetidine- trans-1-carboxylate] stands at most 50 nM; under `CCc1nc(-c2ccnc(N(CC34CCC(c5ccc(OC)c(C)c5)(CC3)CC4)C(=O)[C@H]3CC[C@H](OC(=O)N4CC(O)C4)CC3)c2)co1` [Compound 4.22, 4-((4-(2-Ethyloxazol-4-yl)pyridin-2-yl)((4-(4-methoxy-3-methylphenyl)bicyclo[2.2.2]octan-1-yl)methyl)carbamoyl) cyclohexyl 3-hydroxyazetidine-trans-1-carboxylate], at most 50 nM; under `COc1ccc(C23CCC(CN(c4cc(-c5cnn(C(C)C)c5)ccn4)C(=O)[C@H]4CC[C@H](OC(=O)N(C)CCO)CC4)(CC2)CC3)cc1C` [Compound 4.51, 4-((4-(1-Isopropyl-1H-pyrazol-4-yl)pyridin-2-yl) ((4-(4-methoxy-3-methylphenyl)bicyclo [2.2.2]octan-1-yl)methyl)carbamoyl)cyclohexyl (2-hydroxyethyl)(methyl) trans-carbamate], at most 50 nM.

The compound `COc1ccc([C@H]2CC[C@H](CN(c3cc(-c4cnn(C(C)C)c4)ccn3)C(=O)[C@H]3CC[C@H](OC(=O)NC[C@@H](F)CF)CC3)CC2)cc1C` [Compound 2.32, trans-4-((4-(1-Isopropyl-1H-pyrazol-4-yl)pyridin-2-yl)(((trans)-4-(4-methoxy-3-methylphenyl)cyclohexyl)methyl)carbamoyl) cyclohexyl((R)-2,3-difluoropropyl)carbamate] came in with an EC50 of at most 50 nM. Next, `COc1ccc(C23CCC(CN(c4cc(-c5coc(C(C)C)n5)ccn4)C(=O)[C@H]4CC[C@H](OC(=O)NCCO)CC4)(CC2)CC3)cc1C` [Compound 22, 4-((4-(2-Isopropyloxazol-4-yl)pyridin-2-yl)((4-(4-methoxy-3-methylphenyl)bicyclo[2.2.2]octan-1-yl)methyl)carbamoyl)cyclohexyl (2-hydroxyethyl)trans-carbamate]: at most 50 nM.

Regarding `COc1ccc(C23CCC(CN(c4cc(-c5cnn(C6CCCC6)c5)ccn4)C(=O)[C@H]4CC[C@H](OC(=O)N5CC(CO)C5)CC4)(CC2)CC3)cc1C` [Compound 23.09, 4-((4-(1-Cyclopentyl-1H-pyrazol-4-yl)pyridin-2-yl)((4-(4-methoxy-3-methylphenyl)bicyclo[2.2.2]octan-1-yl)methyl)carba-moyl)(trans-cyclohexyl) 3-(hydroxymethyl)azetidine-1-carboxylate], the EC50 was at most 50 nM. Next, `COc1ccc(C23CCC(CN(c4cc(-c5cnn(C(C)C)c5)cc(Cl)n4)C(=O)[C@H]4CC[C@H](OC(=O)N5CC(O)C5)CC4)(CC2)CC3)cc1C` [Compound 4.40, 4-((6-Chloro-4-(1-isopropyl-1H-pyrazol-4-yl)pyridin-2-yl)((4-(4-methoxy-3-methylphenyl)bicyclo[2.2.2]octan-1-yl)methyl)carbamoyl) cyclohexyl trans-3-hydroxyazetidine-1-carboxylate]: at most 50 nM; `COc1ccc(C23CCC(CN(c4cc(-c5cnn(C(C)C)c5)ccn4)C(=O)[C@H]4CC[C@H](OC(=O)N5CC(CO)C5)CC4)(CC2)CC3)cc1C` [Compound 4.09, 4-((4-(1-Isopropyl-1H-pyrazol-4-yl)pyridin-2-yl)((4-(4-methoxy-3-methylphenyl)bicyclo [2.2.2]octan-1-yl)methyl)carbamoyl)cyclohexyl 3-(hydroxymethyl) azetidine-trans-1-carboxylate]: at most 50 nM. `COc1ccc([C@H]2CC[C@H](CN(c3cc(-c4cc(C(C)C)on4)ccn3)C(=O)[C@H]3CC[C@H](OC(=O)N4CC(O)C4)CC3)CC2)cc1C` [Compound 2.56, trans-4-((4-(5-Isopropylisoxazol-3-yl)pyridin-2-yl)(((trans)-4-(4-methoxy-3-methylphenyl)cyclohexyl)methyl)carbamoyl)cyclohexyl 3-hydroxyazetidine-1-carboxylate] returned an EC50 of at most 50 nM. In turn, `COc1ccc(C23CCC(CN(c4cc(-c5cnn(C6CCS(=O)(=O)CC6)c5)ccn4)C(=O)[C@H]4CC[C@H](OC(=O)N5CC(O)C5)CC4)(CC2)CC3)cc1C` [Compound 26.23, 4-((4-(1-(1,1-Dioxidotetrahydro-2H-thiopyran-4-yl)-1H-pyrazol-4-yl)pyridin-2-yl)((4-(4-methoxy-3-methylphenyl)bicyclo[2.2.2]octan-1-yl)methyl)carbamoyl)cyclohexyl trans-3-hydroxyazetidine-1-carboxylate] yielded an EC50 of 1000 to 10000 nM. Under `COc1ccc([C@H]2CC[C@H](CN(c3cc(-c4coc(C(C)C)n4)ccn3)C(=O)[C@H]3CC[C@H](OC(=O)NCC(C)(C)CO)CC3)CC2)nc1C` [Compound 1.01, trans-4-((4-(2-Isopropyloxazol-4-yl)pyridin-2-yl)((trans-4-(5-methoxy-6-methylpyridin-2-yl)cyclohexyl)methyl)carbamoyl) cyclohexyl (3-hydroxy-2,2-dimethylpropyl)carbamate] stands 50 to 1000 nM.
